The values below come from publication PMC12116762, “Topobexin targets the Topoisomerase II ATPase domain for beta isoform-selective inhibition and anthracycline cardioprotection” (Nature Communications, 2025).

Bounds are passed on as bounds.

The subject of data set [1] is neonatal rat ventricular cardiomyocytes (NVCM). Kind of data set: Inherent toxicity (LDH release) in NVCM. It is filed as cell-based. The settings on record: NVCM; for LTC = lowest toxic concentration: compound alone, n=4. More on the design: key to LDH release (inherent toxicity), mean of independent replicates: % of total LDH activity. As to the method:
(§1) The protective effects of the BNS-22 and newly prepared compounds were evaluated using primary cultures of neonatal rat cardiomyocytes isolated in house as previously described. Hearts isolated from 1- to 3-day-old Wistar rats were minced in buffer (1.2 mM MgSO4 · 7H2O, 116 mM NaCl, 5.3 mM KCl, 1.13 mM NaH2PO4 · H2O, 20 mM 4-(2-hydroxyethyl)-1-piperazine ethanesulfonic acid (HEPES), glucose 1 mg/mL) on ice, then serially digested (20 min, six repetitions) at 37 °C with collagenase type II (60 U/mL, Gibco). After 2 h pre-plating in a 150 mm Petri dish per approximately 20 hearts to minimize non-myocyte contamination, cells were plated in 24-well gelatin-coated plates at a density of 400,000 cells per well. Cells were cultured at 37 °C and 5% CO2 in Dulbecco’s modified Eagle medium (DMEM)/ F12 culture medium supplemented with 10% horse serum, 5% fetal bovine serum (FBS), 20 mM sodium pyruvate, 50 U/mL penicillin, and 50 μg/mL streptomycin. Freshly isolated cells were left for 40 h to attach and form a culture of spontaneously beating cardiomyocytes, then the medium was changed to DMEM/F12 medium supplemented with 5% fetal bovine serum, 20 mM sodium pyruvate, 50 U/mL penicillin, and 50 μg/mL streptomycin. For the experiments, the medium was changed to serum- and pyruvate-free DMEM/F12 with 50 U/mL penicillin and 50 μg/mL streptomycin. Cardiomyocytes were pretreated with BNS-22 or new compounds for 3 h and then coincubated with DAU (1.2 µM) for another 3 h. After the DAU treatment period, the culture medium was exchanged for the drug-free DMEM/F12 with 50 U/mL penicillin and 50 μg/mL streptomycin for the 48 h follow-up. Experiments to determine the inherent toxicity of each compound studied follow the same schedule, only no DAU was added. Subsequently, the culture medium sample was taken from each well for evaluation of lactate dehydrogenase (LDH) activity. The total LDH activity of each sample for normalization was measured after 1 h of incubation at 37 °C in lysis buffer (0.1 M potassium phosphate, 1% Triton X-100, 1 mM dithiothreitol (DTT), 2 mM EDTA, pH 7.8, 15 min in RT). All samples were immediately analyzed in Tris HCl buffer (pH 8.9) containing 35 mM lactic acid and 5 mM NAD^+. The rate of NAD^+ reduction was monitored spectrophotometrically at 340 nm for 2 min. The slope of the linear region was calculated, and the results were expressed as a percentage of the total LDH. Each presented data point was obtained from distinct sample.

Data set [2] shares this test system. Kind of data set: Protection against DAU-induced cytotoxicity (LDH release) in NVCM. It is filed as cell-based. Details: key to Suppl.Fig.3 DAU-induced cytotoxicity (LDH release) in NVCM, mean of independent replicates / LDH release (DAU-induced cytotoxicity), mean of independent replicates: % of total LDH activity. The settings on record: for minimal effective concentration: Rattus norvegicus, Cardiomyocyte, protection against DAU 1.2 µM, n=4, read-out: LEC = lowest effective concentration; for minimal effective concentration / LDH release (protection against DAU), mean of independent replicates: NVCM; for LDH release (protection against DAU), mean of independent replicates: Suppl.Fig.6b. Here is the method:
as §1

A further data set has as its target T1, recombinant human TOP2A (Homo sapiens, UniProt P11388).
T1 construct: Using recombinant full-length human TOP2A and TOP2B enzymes; YFP (N, cleaved yes); made in house; host or cells: HEK293F
Kind of data set: In vitro ATPase activity of TOP2A (coupled assay). It is filed as biochemical. The settings on record: n=3. As to the method:
(§2) Topoisomerase proteins were diluted to 500 nM in storage buffer containing 20 mM HEPES pH 7.5, 500 mM NaCl, 0.5 mM TCEP, 25% glycerol, and 0.2 mg/mL BSA prior to use. A coupled assay was used to measure TOP2-catalyzed ATP hydrolysis in vitro[37] in Costar 96-well plates (Corning Incorporated). […] Reaction plates were pre-warmed to 30 °C for 5 min and ATP was added last to initiate the reaction. The reaction plate was placed in a CLARIOstarPlus plate reader (BMG Labtech) to measure NADH fluorescence at 30 °C every 30 s over 120 cycles using a 340-60 excitation filter and a 480-100 emission filter. Background fluorescence signals calculated from wells containing no ATP were subtracted from each measurement. The slope of NADH fluorescence decay in each well was calculated using the MARS software (BMG Labtech) and reaction wells that lacked topoisomerase inhibitor to account for photobleaching of NADH fluorescence served as background subtraction. Each presented data point was obtained from distinct sample. Values were normalized to untreated controls and plotted as a function of inhibitor concentration to determine IC50 values using Prism 9 (GraphPad).

The target in a further data set is T2, recombinant human TOP2B (Homo sapiens, UniProt Q02880).
T2 construct: Using recombinant full-length human TOP2A and TOP2B enzymes; YFP (N, cleaved yes); made in house; host or cells: HEK293F
T2 sequence (Q02880 1-1621 isoform Q02880-2): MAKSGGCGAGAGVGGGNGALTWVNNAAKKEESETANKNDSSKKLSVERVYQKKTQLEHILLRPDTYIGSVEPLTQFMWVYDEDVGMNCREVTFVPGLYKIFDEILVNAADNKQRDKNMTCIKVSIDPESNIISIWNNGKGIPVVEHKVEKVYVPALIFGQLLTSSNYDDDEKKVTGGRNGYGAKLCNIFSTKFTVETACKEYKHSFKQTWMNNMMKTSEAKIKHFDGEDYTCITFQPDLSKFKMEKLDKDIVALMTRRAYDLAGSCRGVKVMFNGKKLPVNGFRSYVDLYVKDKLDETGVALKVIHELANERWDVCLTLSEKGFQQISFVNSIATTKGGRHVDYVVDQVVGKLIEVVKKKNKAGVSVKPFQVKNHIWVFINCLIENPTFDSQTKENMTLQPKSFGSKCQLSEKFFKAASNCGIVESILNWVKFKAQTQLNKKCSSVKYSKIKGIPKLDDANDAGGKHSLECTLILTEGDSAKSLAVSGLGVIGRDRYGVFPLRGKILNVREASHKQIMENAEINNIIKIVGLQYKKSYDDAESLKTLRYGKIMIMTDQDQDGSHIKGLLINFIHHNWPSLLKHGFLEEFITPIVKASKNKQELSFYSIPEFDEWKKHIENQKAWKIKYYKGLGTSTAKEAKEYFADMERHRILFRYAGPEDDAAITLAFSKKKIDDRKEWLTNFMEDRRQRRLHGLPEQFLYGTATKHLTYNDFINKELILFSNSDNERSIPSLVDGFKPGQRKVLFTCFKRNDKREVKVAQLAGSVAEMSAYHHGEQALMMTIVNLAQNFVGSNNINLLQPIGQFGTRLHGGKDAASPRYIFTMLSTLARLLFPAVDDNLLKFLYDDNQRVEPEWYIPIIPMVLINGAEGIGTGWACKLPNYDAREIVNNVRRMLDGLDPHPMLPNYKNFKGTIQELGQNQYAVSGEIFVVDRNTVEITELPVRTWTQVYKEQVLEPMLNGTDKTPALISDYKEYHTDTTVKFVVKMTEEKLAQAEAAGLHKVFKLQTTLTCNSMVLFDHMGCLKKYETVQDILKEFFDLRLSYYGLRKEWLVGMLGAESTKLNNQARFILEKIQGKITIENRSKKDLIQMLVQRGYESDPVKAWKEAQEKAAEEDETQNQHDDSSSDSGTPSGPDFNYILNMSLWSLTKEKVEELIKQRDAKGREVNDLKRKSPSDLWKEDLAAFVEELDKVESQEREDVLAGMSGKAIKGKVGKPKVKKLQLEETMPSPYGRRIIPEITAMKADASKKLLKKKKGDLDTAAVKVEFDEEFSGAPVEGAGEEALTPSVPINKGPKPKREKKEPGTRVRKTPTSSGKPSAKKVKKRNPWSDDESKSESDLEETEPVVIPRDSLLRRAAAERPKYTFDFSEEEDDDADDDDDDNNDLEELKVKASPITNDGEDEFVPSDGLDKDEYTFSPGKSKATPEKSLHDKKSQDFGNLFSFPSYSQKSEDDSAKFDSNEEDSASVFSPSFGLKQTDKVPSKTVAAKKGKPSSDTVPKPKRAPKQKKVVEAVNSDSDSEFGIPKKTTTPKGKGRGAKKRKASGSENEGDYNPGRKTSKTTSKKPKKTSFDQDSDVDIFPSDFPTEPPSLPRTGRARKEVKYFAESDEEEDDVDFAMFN
Kind of data set: In vitro ATPase activity of TOP2B (coupled assay). It is filed as biochemical. The settings on record: for SRbeta (SRTOP2B), TOP2 ATPase activity: TOP2A IC50 divided by TOP2B IC50; for IC50: n=3. Here is the method:
as §2

Setting [3] is: compound alone 0.1 µM, Suppl.Fig.4.
Where [4] appears, read: compound alone 1 µM, Suppl.Fig.4.
Where [5] appears, read: compound alone 10 µM, Suppl.Fig.4.
Where [6] appears, read: compound alone 0.01 µM, Suppl.Fig.4.
Setting [7] is: compound alone 30 µM, Suppl.Fig.4.
Where [8] appears, read: compound alone 100 µM, Suppl.Fig.4.
Where [9] appears, read: compound alone 0.01 µM, Suppl.Fig.6c.
[10] abbreviates: compound alone 0.1 µM, Suppl.Fig.6c.
The mark [11] stands for this setting: compound alone 1 µM, Suppl.Fig.6c.
The mark [12] stands for this setting: compound alone 10 µM, Suppl.Fig.6c.
Setting [13] is: compound alone 30 µM, Suppl.Fig.6c.
Where [14] appears, read: compound alone 100 µM, Suppl.Fig.6c.

T1 sequence (P11388 whole entry): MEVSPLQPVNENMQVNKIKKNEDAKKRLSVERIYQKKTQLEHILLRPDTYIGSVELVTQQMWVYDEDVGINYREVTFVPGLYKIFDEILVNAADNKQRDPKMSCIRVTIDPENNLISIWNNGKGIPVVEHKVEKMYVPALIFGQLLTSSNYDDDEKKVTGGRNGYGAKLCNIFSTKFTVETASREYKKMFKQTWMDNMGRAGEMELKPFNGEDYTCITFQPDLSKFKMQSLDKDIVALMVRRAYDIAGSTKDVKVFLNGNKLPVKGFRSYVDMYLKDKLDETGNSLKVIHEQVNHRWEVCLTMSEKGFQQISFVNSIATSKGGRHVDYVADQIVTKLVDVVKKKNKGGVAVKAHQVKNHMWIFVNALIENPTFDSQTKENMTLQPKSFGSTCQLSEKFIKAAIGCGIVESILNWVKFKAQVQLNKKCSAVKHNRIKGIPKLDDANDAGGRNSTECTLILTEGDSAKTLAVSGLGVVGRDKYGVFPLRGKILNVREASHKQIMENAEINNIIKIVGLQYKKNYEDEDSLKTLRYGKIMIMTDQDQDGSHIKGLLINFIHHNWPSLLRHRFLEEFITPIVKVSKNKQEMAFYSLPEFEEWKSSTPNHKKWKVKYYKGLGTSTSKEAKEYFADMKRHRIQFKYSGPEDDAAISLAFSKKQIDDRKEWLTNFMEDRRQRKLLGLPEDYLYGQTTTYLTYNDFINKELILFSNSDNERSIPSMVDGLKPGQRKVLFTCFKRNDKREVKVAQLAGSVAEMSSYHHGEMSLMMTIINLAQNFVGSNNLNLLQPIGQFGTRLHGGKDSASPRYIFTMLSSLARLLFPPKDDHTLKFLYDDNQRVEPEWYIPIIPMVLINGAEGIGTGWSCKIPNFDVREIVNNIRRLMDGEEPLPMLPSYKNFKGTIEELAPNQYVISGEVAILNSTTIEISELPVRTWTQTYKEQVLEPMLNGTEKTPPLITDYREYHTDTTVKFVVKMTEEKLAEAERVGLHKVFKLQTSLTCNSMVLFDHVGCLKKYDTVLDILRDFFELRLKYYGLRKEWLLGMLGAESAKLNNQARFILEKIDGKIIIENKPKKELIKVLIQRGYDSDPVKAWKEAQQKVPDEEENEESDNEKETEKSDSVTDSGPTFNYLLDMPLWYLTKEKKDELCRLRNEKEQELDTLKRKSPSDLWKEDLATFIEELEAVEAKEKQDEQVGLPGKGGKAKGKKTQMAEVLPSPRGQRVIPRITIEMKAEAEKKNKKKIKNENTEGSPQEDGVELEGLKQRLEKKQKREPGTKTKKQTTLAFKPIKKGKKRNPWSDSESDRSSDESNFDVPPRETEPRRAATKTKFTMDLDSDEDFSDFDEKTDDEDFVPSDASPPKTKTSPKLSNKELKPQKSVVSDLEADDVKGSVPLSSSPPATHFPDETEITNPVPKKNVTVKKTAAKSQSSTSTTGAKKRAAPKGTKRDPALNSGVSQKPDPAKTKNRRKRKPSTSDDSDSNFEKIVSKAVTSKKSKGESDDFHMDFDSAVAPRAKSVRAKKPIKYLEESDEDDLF

For the compound `CCCc1cc(=O)oc2c(C(=O)N3CCCc4ccccc43)c(OC)ccc12` [3c], in data set [1], the “LTC = lowest toxic concentration” value was more than 10 µM. Besides, the “LDH release (inherent toxicity), mean of independent replicates” value (“LDH release (inherent toxicity), mean” for short) in data set [1] (setting [3]) was 16.0204; in data set [1] (setting [4]), 16.3627; in data set [1] (compound alone 3 µM, Suppl.Fig.4) it was 15.3033; in data set [1] (setting [5]), 16.4282. Besides, in data set [2], the minimal effective concentration turned out to be 1 µM. In addition, the “Suppl.Fig.3 DAU-induced cytotoxicity (LDH release) in NVCM, mean of independent replicates” value (“Suppl.Fig.3 DAU-induced cytotoxicity” for short) in data set [2] (compound 0.1 µM + DAU 1.2 µM) amounted to 33.8238; in data set [2] (compound 1 µM + DAU 1.2 µM) it was 29.3632; in data set [2] (compound 3 µM + DAU 1.2 µM) it was 26.6827; in data set [2] (compound 10 µM + DAU 1.2 µM), 23.4291. Further, the figures for the half-maximal inhibitory concentration (IC50) at recombinant human TOP2A and on recombinant human TOP2B were 1270 nM and 780 nM, respectively. Besides, the “SRbeta (SRTOP2B), TOP2 ATPase activity” value at recombinant human TOP2B was 1.6.
Consider `CCCOc1ccc2c(CCC)cc(=O)oc2c1C(=O)N1CCCc2ccccc21` [4c], for which the “LDH release (inherent toxicity), mean” value in data set [1] (setting [6]) is reported as 13.5244; in data set [1] (setting [3]), 16.7326; in data set [1] (setting [4]), 16.4897; in data set [1] (setting [5]), 23.8379; in data set [1] (setting [7]) it was 34.5318; in data set [1] (setting [8]), 48.1102. Also, in data set [2], the minimal effective concentration is 0.1 µM. Besides, the “Suppl.Fig.3 DAU-induced cytotoxicity” value in data set [2] (compound 0.01 µM + DAU 1.2 µM) came to 45.7304; in data set [2] (compound 0.1 µM + DAU 1.2 µM), 37.3488; in data set [2] (compound 1 µM + DAU 1.2 µM) it was 27.8991; in data set [2] (compound 10 µM + DAU 1.2 µM), 34.5307; in data set [2] (compound 30 µM + DAU 1.2 µM) it was 56.7644; in data set [2] (compound 100 µM + DAU 1.2 µM) it was 78.8192. The IC50 on recombinant human TOP2A was 1870 nM; on recombinant human TOP2B it was 850 nM. Also, the “SRbeta (SRTOP2B), TOP2 ATPase activity” value on recombinant human TOP2B was 2.2.
As to `Cc1cc(=O)oc2c(C(=O)N3CCCc4ccccc43)c(OCCO)ccc12` [5a], the “LDH release (inherent toxicity), mean” value in data set [1] (setting [4]) is recorded as 12.9508; in data set [1] (setting [5]), 15.8869; in data set [1] (setting [7]), 14.1719; in data set [1] (setting [8]) it was 15.685. In data set [2], the minimal effective concentration was 30 µM. For the same compound, the “Suppl.Fig.3 DAU-induced cytotoxicity” value is 47.2456 in data set [2] (compound 1 µM + DAU 1.2 µM), 46.8582 in data set [2] (compound 10 µM + DAU 1.2 µM), 41.4003 in data set [2] (compound 30 µM + DAU 1.2 µM) and 38.7405 in data set [2] (compound 100 µM + DAU 1.2 µM).
`CCCCc1cc(=O)oc2c(C(=O)N3CCCc4ccccc43)c(OCCO)ccc12` [5d]: the “LDH release (inherent toxicity), mean” value in data set [1] (setting [6]) is 16.4804; in data set [1] (setting [3]) it was 15.5556; in data set [1] (setting [4]), 15.5462; in data set [1] (setting [5]), 19.8205; in data set [1] (setting [7]), 25.0146; in data set [1] (setting [8]) it was 27.0966. In addition, the “Suppl.Fig.3 DAU-induced cytotoxicity” value is listed as 44.6742 in data set [2] (compound 0.01 µM + DAU 1.2 µM); 41.2776 in data set [2] (compound 0.1 µM + DAU 1.2 µM); 35.4099 in data set [2] (compound 1 µM + DAU 1.2 µM); 33.3492 in data set [2] (compound 10 µM + DAU 1.2 µM); 35.9089 in data set [2] (compound 30 µM + DAU 1.2 µM); 42.7736 in data set [2] (compound 100 µM + DAU 1.2 µM).
For the compound `CCCc1cc(=O)oc2c(C(=O)N3CCCc4ccccc43)c(OCCN(C)C)ccc12` [compound 7], the “LDH release (inherent toxicity), mean” value in data set [1] (setting [9]) came out at 12.5189; in data set [1] (setting [10]) it was 12.4578; in data set [1] (setting [11]), 12.8607; in data set [1] (setting [12]), 14.2154; in data set [1] (setting [13]), 18.2491; in data set [1] (setting [14]) it was 27.6932. Also, the minimal effective concentration in data set [2] worked out at 10 µM. The “LDH release (protection against DAU), mean of independent replicates” value in data set [2] (compound 0.01 µM + DAU 1.2 µM) is on record as 44.2016; in data set [2] (compound 0.1 µM + DAU 1.2 µM), 45.7696; in data set [2] (compound 1 µM + DAU 1.2 µM) it was 39.8955; in data set [2] (compound 10 µM + DAU 1.2 µM) it was 31.2866; in data set [2] (compound 30 µM + DAU 1.2 µM), 33.8072; in data set [2] (compound 100 µM + DAU 1.2 µM) it was 37.6314.
Regarding `CCCc1cc(=O)oc2c(C(=O)N3CCCc4ccccc43)c(OCCCN3CCCCC3)ccc12` [compound 8], the “LTC = lowest toxic concentration” value in data set [1] was determined as 30 µM. For the same compound, the “LDH release (inherent toxicity), mean” value stood at 14.7015 in data set [1] (setting [9]); 13.9677 in data set [1] (setting [10]); 14.1413 in data set [1] (setting [11]); 16.8035 in data set [1] (setting [12]); 21.145 in data set [1] (setting [13]); 29.4802 in data set [1] (setting [14]). For the same compound, in data set [2], the minimal effective concentration amounted to 1 µM. The “LDH release (protection against DAU), mean of independent replicates” value in data set [2] (compound 0.01 µM + DAU 1.2 µM) is 40.886; in data set [2] (compound 0.1 µM + DAU 1.2 µM), 39.8568; in data set [2] (compound 1 µM + DAU 1.2 µM) it was 34.126; in data set [2] (compound 10 µM + DAU 1.2 µM) it was 30.5731; in data set [2] (compound 30 µM + DAU 1.2 µM), 32.7612; in data set [2] (compound 100 µM + DAU 1.2 µM), 39.9555.
